Legend:
LcrF = LcrF (Yersinia pestis, UniProt P28808); assay: biochemical; format: binding; conditions: for IC50: LcrF IC50
[1] = system: pET-15b supercoiled plasmid DNA; assay: In vitro DNA binding assay; conditions: 100 μg/mL; agarose gel electrophoresis
S. aureus = assay: In vitro antimicrobial susceptibility test; format: cell-based
[2] = system: uninfected J774A.1 murine macrophages; conditions: 50μg/mL
SlyA = target: T1, SlyA (Salmonella typhimurium, UniProt P40676); assay: biochemical; format: binding, Salmonella spp.
T1 sequence (P40676 1-144): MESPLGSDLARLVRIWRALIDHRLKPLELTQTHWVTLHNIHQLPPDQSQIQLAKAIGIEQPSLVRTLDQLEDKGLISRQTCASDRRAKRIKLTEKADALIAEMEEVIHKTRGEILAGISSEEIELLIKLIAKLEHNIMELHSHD

E. coli = assay: In vitro antimicrobial susceptibility test; format: cell-based
Y. pseudotuberculosis = format: cell-based
[3] = system: T3SS-dependent Y. pseudotuberculosis killing of macrophages

Sequence of LcrF (P28808 whole entry, looked up): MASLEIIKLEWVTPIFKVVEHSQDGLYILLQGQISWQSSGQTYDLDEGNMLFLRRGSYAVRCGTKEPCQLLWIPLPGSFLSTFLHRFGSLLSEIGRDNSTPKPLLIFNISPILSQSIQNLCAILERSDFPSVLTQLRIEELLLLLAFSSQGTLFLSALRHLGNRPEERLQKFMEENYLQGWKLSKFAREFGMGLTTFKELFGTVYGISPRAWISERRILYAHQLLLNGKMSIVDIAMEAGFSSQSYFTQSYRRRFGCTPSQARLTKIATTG

Q: How did the “inhibitory activity in LcrF-DNA binding assay (in words)” value (“inhibitory activity” below) (LcrF) turn out when `O=C(NCc1ccc(-c2nc3ccc([N+](=O)[O-])cc3n2O)cc1)c1ccc(F)cc1` [Compound 11, 4-Fluoro-N-[4-(1-hydroxy-6-nitro-1H-benzoimidazol-2-yl)-benzyl]-benzamide] was run?
A: no measurable activity

Q: For `O=C(Cc1ccc(F)cc1)Nc1ccc(-c2nc3ccc([N+](=O)[O-])cc3n2O)cc1` [Compound 12, 2-(4-Fluoro-phenyl)-N-[4-(1-hydroxy-6-nitro-1H-benzoimidazol-2-yl)-phenyl]-acetamide], which “inhibitory activity” value (LcrF) is on record?
A: no measurable activity

Q: For `O=C(CCc1ccc(F)cc1)Nc1ccc(-c2nc3ccc([N+](=O)[O-])cc3n2O)cc1` [Compound 13, 3-(4-Fluoro-phenyl)-N-[4-(1-hydroxy-6-nitro-1H-benzoimidazol-2-yl)-phenyl]-propionamide], which “inhibitory activity” value (LcrF) is on record?
A: no measurable activity

Q: Which “non-specific DNA binding (effect on plasmid migration)” value (“non-specific DNA binding” for short) [1] does the source give for `O=C(/C=C/c1ccc(F)cc1)Nc1ccc(-c2nc3ccc([N+](=O)[O-])cc3n2O)cc1` [Compound 14, (E)-3-(4-Fluoro-phenyl)-N-[4-(1-hydroxy-6-nitro-1H-benzoimidazol-2-yl)-phenyl]-acrylamide] here?
A: non-DNA binding

Q: And the “antibacterial activity (in words)” value (S. aureus)?
A: no measurable antibacterial activity

Q: What about the “intrinsic toxicity to uninfected macrophages” value [2] of the same molecule?
A: non-cytotoxic

Q: And the IC50 (SlyA)?
A: > 53.8 µM

Q: And the “antibacterial activity (in words)” value (E. coli)?
A: no measurable antibacterial activity

Q: What about the IC50 (LcrF) of the same molecule?
A: ≤ 10 µM

Q: What about the “antibacterial activity (in words)” value (Y. pseudotuberculosis) of the same molecule?
A: no measurable antibacterial activity

Q: `N#Cc1ccc(/C=C/C(=O)Nc2ccc(-c3nc4ccc([N+](=O)[O-])cc4n3O)cc2)cc1` [Compound 19] was tested. Which “inhibition of Y. pseudotuberculosis cytotoxicity in whole cell assay (in words)” value (from here on “inhibition”) [3] did it give?
A: strongly inhibited cytotoxicity

Q: Which “inhibition” value [3] does the source give for `Cc1ccc(/C=C/C(=O)Nc2ccc(-c3nc4ccc([N+](=O)[O-])cc4n3O)cc2)cc1` [Compound 20, (E)-N-[4-(1-Hydroxy-6-nitro-1H-benzoimidazol-2-yl)-phenyl]-3-p-tolyl-acrylamide] here?
A: relatively inactive

Q: `COc1ccc(/C=C/C(=O)Nc2ccc(-c3nc4ccc([N+](=O)[O-])cc4n3O)cc2)cc1` [Compound 22, (E)-N-[4-(1-Hydroxy-6-nitro-1H-benzoimidazol-2-yl)-phenyl]-3-(4-methoxy-phenyl)-acrylamide] was tested. Which “non-specific DNA binding” value [1] did it give?
A: non-DNA binding

Q: And the “antibacterial activity (in words)” value (S. aureus)?
A: no measurable antibacterial activity

Q: And the “intrinsic toxicity to uninfected macrophages” value [2]?
A: non-cytotoxic

Q: And the IC50 (SlyA)?
A: > 55.2 µM

Q: What about the “antibacterial activity (in words)” value (E. coli) of the same molecule?
A: no measurable antibacterial activity

Q: What about the IC50 (LcrF) of the same molecule?
A: ≤ 10 µM

Q: And the “antibacterial activity (in words)” value (Y. pseudotuberculosis)?
A: no measurable antibacterial activity

Q: Which “inhibitory activity” value (LcrF) does the source give for `COc1ccc(/C=C/C(=O)Nc2ccc(-c3nc4ccc([N+](=O)[O-])cc4n3O)cc2)c(OC)c1` [Compound 24, (E)-3-(2,4-Dimethoxy-phenyl)-N-[4-(1-hydroxy-6-nitro-1H-benzoimidazol-2-yl)-phenyl]-acrylamide] here?
A: loss of activity

Q: Which “inhibitory activity” value (LcrF) does the source give for `CC(C)c1ccc(/C=C/C(=O)Nc2ccc(-c3nc4ccc([N+](=O)[O-])cc4n3O)cc2)cc1` [Compound 25, (E)-N-[4-(1-Hydroxy-6-nitro-1H-benzoimidazol-2-yl)-phenyl]-3-(4-isopropyl-phenyl)-acrylamide] here?
A: loss of activity

Q: For `O=C(/C=C/c1ccc(-n2cnnc2)cc1)Nc1ccc(-c2nc3ccc([N+](=O)[O-])cc3n2O)cc1` [Compound 27], which “inhibitory activity” value (LcrF) is on record?
A: loss of activity

Q: `O=C(/C=C/c1ccc(-c2c[nH]cn2)cc1)Nc1ccc(-c2nc3ccc([N+](=O)[O-])cc3n2O)cc1` [Compound 28] was tested. Which “inhibitory activity” value (LcrF) did it give?
A: loss of activity

Q: For `O=C(/C=C/c1ccc(F)cc1)Nc1ccc(-c2nc3ccc([N+](=O)[O-])cc3n2O)nc1` [Compound 31, (E)-3-(4-Fluoro-phenyl)-N-[6-(1-hydroxy-6-nitro-1H-benzoimidazol-2-yl)-pyridin-3-yl]-acrylamide], which “inhibition” value [3] is on record?
A: devoid of any measurable activity

Q: What does the source list for `Cc1cc2nc(-c3ccc(NC(=O)/C=C/c4ccc(F)cc4)cc3)n(O)c2cc1[N+](=O)[O-]` [Compound 36, (E)-3-(4-Fluoro-phenyl)-N-[4-(1-hydroxy-5-methyl-6-nitro-1H-benzoimidazol-2-yl)-phenyl]-acrylamide]?
A: non-specific DNA binding (effect on plasmid migration) [1]: non-DNA binding; antibacterial activity (in words) (S. aureus): no measurable antibacterial activity; intrinsic toxicity to uninfected macrophages [2]: non-cytotoxic; IC50 (SlyA): > 52 µM; antibacterial activity (in words) (E. coli): no measurable antibacterial activity; IC50 (LcrF): ≤ 10 µM; antibacterial activity (in words) (Y. pseudotuberculosis): no measurable antibacterial activity

Q: `CN(C)CCN(C)c1cc2nc(-c3ccc(NC(=O)/C=C/c4ccc(F)cc4)cc3)n(O)c2cc1[N+](=O)[O-]` [Compound 40] was tested. Which “non-specific DNA binding” value [1] did it give?
A: non-specific binding to DNA

Q: How did the “non-specific DNA binding” value [1] turn out when `CCOc1ccc(-c2nc3ccc(-c4nc5ccc(N6CCN(C)CC6)cc5[nH]4)cc3[nH]2)cc1` [Hoechst 33342, reference compound] was run?
A: faint smear on the gel

From PMC2778250 (Journal of medicinal chemistry, 2009)
